Experiments:
Assay in all cases: Growth inhibition of cell lines treated with 2X-121
Format in all cases: cell-based
HEC-59 = details: cell line HEC-59, origin Endometrial; read-out: Measured growth inhibition IC50
HL-60 = details: Homo sapiens; cell line HL-60, origin Promyelocytic leukemia; read-out: Measured growth inhibition IC50
DB = details: Homo sapiens; cell line DB, origin DLBCL (GC); read-out: Measured growth inhibition IC50

Molecule `O=c1[nH]nc2c3c(cccc13)N=C(CN1Cc3ccccc3C1)N2` [2X-121, 8-(isoindolin-2-ylmethyl)-2,9-dihydro-3H-pyridazino[3,4,5-de]quinazolin-3-one] has an IC50 (HEC-59) of 2440 nM, an IC50 (HL-60) of 10300 nM and an IC50 (DB) of 1600 nM.
